Values of other authors in US4745233A, “Derivatives of 1,1,2,2-tetramethyl-1,2-bis-(2-fluoro-4-hydroxyphenyl)-ethane” (Asta-Werke Aktiengesellschaft, priority 1985, dated 1988).

Tests used:
[1] = target: T1, oestrogen receptor (Bos taurus, UniProt P49884); conditions: known compound, literature
T1 sequence (P49884 1-596): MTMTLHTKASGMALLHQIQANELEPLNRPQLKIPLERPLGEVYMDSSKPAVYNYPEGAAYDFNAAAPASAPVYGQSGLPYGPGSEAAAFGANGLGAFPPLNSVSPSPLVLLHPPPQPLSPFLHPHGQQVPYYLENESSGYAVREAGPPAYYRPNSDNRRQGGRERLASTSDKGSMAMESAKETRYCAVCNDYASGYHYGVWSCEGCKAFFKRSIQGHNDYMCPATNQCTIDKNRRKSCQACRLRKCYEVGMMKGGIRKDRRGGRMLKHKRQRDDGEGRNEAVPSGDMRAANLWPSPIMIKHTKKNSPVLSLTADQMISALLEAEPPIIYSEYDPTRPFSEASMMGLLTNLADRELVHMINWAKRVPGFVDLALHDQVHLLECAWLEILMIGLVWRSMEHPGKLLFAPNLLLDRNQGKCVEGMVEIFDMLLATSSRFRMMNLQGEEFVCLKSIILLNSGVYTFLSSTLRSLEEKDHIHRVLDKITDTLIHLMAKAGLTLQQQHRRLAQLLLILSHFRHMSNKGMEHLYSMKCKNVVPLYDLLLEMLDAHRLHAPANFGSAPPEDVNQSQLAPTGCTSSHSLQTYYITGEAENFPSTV

[2] = system: DMBA-induced mammary carcinomas; conditions: Sprague Dawley rats; known compound
[3] = system: oestrone- or oestradiol-stimulated uterus growth; conditions: juvenile mice; known compound

relative binding affinity [1]: 3.6
SMILES: CC(C)(c1ccc(O)cc1)C(C)(C)c1ccc(O)cc1 [1,1,2,2-tetramethyl-1,2-bis-(4-hydroxyphenyl)-ethane]
growth of DMBA-induced mammary carcinoma [2]: inhibits the growth
antioestrogen effect: inhibition of oestrone- or oestradiol-stimulated uterus growth [3]: strong effect as antioestrogen
